6 molecules from ChEMBL document CHEMBL4765384, “Development of a metabolically stable topoisomerase I poison as anticancer agent” (Eur J Med Chem, 2020) can be followed below.

A word on the half-life: it is the time needed for the level to fall by half in the phase considered. A word on the solubility: it is the dissolved amount per volume that the medium holds. One may read the logD as the decadic logarithm of the distribution of all forms, ionised or not, between an organic phase and buffer at a given pH. What is called IC50 is the concentration that gives 50% inhibition.

≈ marks a conversion by molar mass, not a printed value. Some results are limits rather than exact numbers.

A short description of data set [1]: Stability in human liver microsomes assessed as parent compound remaining after 60 mins in presence of cofactor by LC-MS/MS analysis. To be noted: read-out: Stabilty. In kind it is ADME, Microsome. For orientation: Microsomes from liver hold many membrane-bound enzymes, among them those of drug oxidation.
The nature of data set [2]: Stability in human liver microsomes assessed as parent compound remaining after 60 mins by LC-MS/MS analysis. The data set is classed as ADME, Microsome. Conditions: read-out: Stabilty.
Data set [3] can be described thus: Half life in human liver microsomes by LC-MS/MS analysis. In kind it is ADME, Microsome.
The nature of data set [4]: Intrinsic clearance in human liver microsomes after 60 mins in presence of cofactor by LC-MS/MS analysis. The data set is classed as ADME, Microsome. To be noted: 1 h.
Data set [5] in a line: Aqueous solubility of compound. In kind it is physicochemical.
Data set [6] can be described thus: Stability in human plasma assessed as parent compound remaining after 2 hrs. In kind it is ADME, cell-free. Conditions: read-out: Stabilty.
The nature of data set [7]: Lipophilicity, logD of the compound at pH 7.4. In kind it is physicochemical. Conditions: buffer.
Data set [8] concerns the target T1, DNA topoisomerase 1 (Homo sapiens, UniProt P11387).
T1 sequence (P11387 whole entry): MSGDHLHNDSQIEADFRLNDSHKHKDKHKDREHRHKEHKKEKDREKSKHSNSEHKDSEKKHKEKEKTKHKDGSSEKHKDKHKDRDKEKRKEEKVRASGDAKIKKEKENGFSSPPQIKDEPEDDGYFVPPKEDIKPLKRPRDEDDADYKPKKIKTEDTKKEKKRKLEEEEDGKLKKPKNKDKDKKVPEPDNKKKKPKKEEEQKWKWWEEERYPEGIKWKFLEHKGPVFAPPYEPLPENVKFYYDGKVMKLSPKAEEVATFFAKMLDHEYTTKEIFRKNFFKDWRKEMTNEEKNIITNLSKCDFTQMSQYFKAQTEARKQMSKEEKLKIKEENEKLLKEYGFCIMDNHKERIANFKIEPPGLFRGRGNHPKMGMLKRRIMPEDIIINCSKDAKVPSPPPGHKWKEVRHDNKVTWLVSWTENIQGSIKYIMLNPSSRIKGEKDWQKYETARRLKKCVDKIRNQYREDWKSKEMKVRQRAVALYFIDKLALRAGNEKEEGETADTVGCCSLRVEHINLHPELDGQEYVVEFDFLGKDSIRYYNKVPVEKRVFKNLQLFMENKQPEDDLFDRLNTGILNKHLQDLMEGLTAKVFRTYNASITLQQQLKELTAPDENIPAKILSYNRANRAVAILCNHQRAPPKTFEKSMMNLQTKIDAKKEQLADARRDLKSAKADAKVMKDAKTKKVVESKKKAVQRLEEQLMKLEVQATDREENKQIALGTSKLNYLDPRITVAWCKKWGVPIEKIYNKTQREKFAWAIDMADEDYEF
Description: Inhibition of recombinant human Top1 expressed in baculovirus infected sf9 insect cells using supercoiled pBS (SK+) DNA as substrate incubated for 30 mins by ethidium bromide staining based agarose gel electrophoresis analysis.

Data set [9] has as its target T1, DNA topoisomerase 1. As to the kind of experiment: Inhibition of Top1 in human MCF7 cells using supercoiled pBS (SK+) DNA as substrate incubated for 30 mins by ethidium bromide staining based agarose gel electrophoresis analysis. The data set is classed as cell-based.
The test system of another data set is HEK293. Description: Cytotoxicity against HEK293 cells assessed as reduction in cell viability after 48 hr by MTT assay. Conditions: Homo sapiens, HEK293, 48 h. The data set is classed as cell-based.
A further data set concerns MCF7. Description: Cytotoxicity against human MCF7 cells assessed as reduction in cell viability after 48 hr by MTT assay. The data set is classed as functional, cell-based. Conditions: MCF7, 48 h. (Formazan colour is commonly taken as a measure of viable cells.)

Turning to `COc1ccc(-c2ccc3ncc(-c4nnco4)c(NCCCn4ccnc4)c3c2)cc1`, the remaining at 1 h in data set [1] was 112%; in [2], 1.68%. This molecule displayed a half-life in [3] of 9.94 min. Moreover, the CLH in data set [4] was 69.7 µL/min/mg.

In the case of `Cc1ccc(-c2ccc3ncc(-c4nnco4)c(NCCCn4ccnc4)c3c2)cc1`, the results for the remaining at 1 h in data set [1] and in data set [2] were 93% and 0%, respectively. The same molecule displayed a solubility in [5] of 0.3 µg/mL (≈ 0.731 µM). For the same molecule, the half-life in data set [3] stood at 7.77 min. In addition, the remaining at 2 h in data set [6] was determined as 90.8%. In addition, the CLH in data set [4] is 89.3 µL/min/mg. In data set [7], the logD was > 3.5.

With `COc1ccc(-c2ccc3ncc(-c4nnco4)c(NCCCN4CCCC4)c3c2)cc1`, the IC50 at DNA topoisomerase 1 [8] was > 10 µM.

`Nc1ccc(-c2ccc3ncc(-c4nnco4)c(NCCCn4ccnc4)c3c2)cc1`: the remaining at 1 h in data set [1] came to 93.8%; in data set [2], 53.7%. Further, the figures for the IC50 against DNA topoisomerase 1 [9], in the data set on HEK293 and in the data set on MCF7 were 2.5 µM, > 10 µM and 2.5 µM, respectively. In data set [3], this molecule displayed a half-life of 69.1 min. The remaining at 2 h in [6] stood at 91.3%. Further, the CLH in data set [4] is 10 µL/min/mg.

Consider `COc1ccc(-c2ccc3ncc(-c4nnco4)c(NCCCn4cccc4)c3c2)cc1`, for which, on DNA topoisomerase 1 [8], the IC50 was > 10 µM.

Turning to `CC[C@@]1(O)C(=O)OCc2c1cc1n(c2=O)Cc2cc3ccccc3nc2-1` [CAMPTOTHECIN], the IC50 with HEK293 stood at 8.75 µM.
